Experiments:
[1] = tested on: IL-2; assay: IL-2 mRNA expression in Jurkat cells by qRT-PCR, normalized with GAPDH; assay type: cell-based, human
Protocol: (§1) FIG. 1. Interferon gamma (IFN-γ) and interleukin (IL)-2 expression in human Jurkat cells following exposure to TRIP in vitro. Jurkat cells (2×10^6) were treated with different concentrations of TRIP as indicated for 24 hours. (A) IFN-γ and (B) IL-2 mRNA expression levels were detected by quantitative real-time polymerase chain reaction (qRT-PCR) and normalized with the expression of GAPDH. *p<0.05, **p<0.01, ***p<0.001.
(§2) FIG. 3. Effects of TRIP alone and in combination with trifluoperazine (TFP) or LY294002 (LY) on IFN-γ and IL-2 in human Jurkat cells in vitro. Jurkat cells (2×10^6) were pretreated with different concentrations of (A, B) TFP (0, 0.1, 1.0, 5.0, and 10.0 μM) and (C, D) LY294002 (0, 1, 5, 10, and 25 μM) for 1 hour, then incubated with medium containing 2.5 μM of TRIP for 24 hours. (A, C) IFN-γ and (B, D) IL-2 mRNA expression levels were detected by qRT-PCR and normalized with the expression of GAPDH. *p<0.05, **p<0.01, ***p<0.001.
(§3) FIG. 4. Effects of calmodulin, PI3K and MAPK inhibition on TRIP-induced expression of IFN-γ and IL-2 in human Jurkat cells in vitro. Jurkat cells (2×10^6) were pretreated with PD98059 (50 μM), TFP (10 μM) and LY294002 (25 μM) for 1 hour, then incubated with medium containing 2.5 μM of TRIP for 24 hours. (A) IFN-γ and (B) IL-2 mRNA expression levels were detected by qRT-PCR and normalized with the expression of GAPDH. **p<0.01, ***p<0.001, ****p<0.0001.
(§4) The potential immune regulating effects of TRIP and the possible mechanism(s) involved were determined with in vitro experiments examining the expression of T cell activating cytokines in human acute T cell leukemia Jurkat cells. The expression of IFN-γ and IL-2 RNA following exposure to increasing concentrations of TRIP (i.e., ospemifene) were first examined, followed by the effects of combining tamoxifen with TRIP on the expression of these cytokines. Different inhibitors of key T cell activation pathways—trifluoperazine (TFP), an inhibitor of calmodulin, LY294002, an inhibitor of PI3K, and PD98059, a MAPK inhibitor—in combination with TRIP were assessed for their effects on TRIP-induced expression of IFN-γ and IL-2 in Jurkat cells.
(§5) Jurkat cells (2.0×10^6) were treated with different concentrations of TRIP as indicated on the x-axis for 24 hours. (A) IFN-γ and (B) IL-2 mRNA expression levels were detected by quantitative real-time polymerase chain reaction (qRT-PCR) and normalized with the expression of GAPDH. *p<0.05, **p<0.01, ***p<0.001.
(§6) T cell activation requires multiple signals including PI3K, MAPK and calcium signaling pathways, and in order to identify the potential mechanism through which TRIP affects immune activation, Jurkat cells (2.0×10^6) were pretreated with different concentrations of TFP (0, 0.1, 1.0, 5.0 and 10.0 μM) (A, B) or LY294002 (0, 1, 5, 10 and 25 μM) (C, D) for one hour, then incubated with medium containing 2.5 μM TRIP for 24 hours. IFN-γ and IL-2 expression levels were detected by qRT-PCR and normalized with the expression of GAPDH. *p<0.05, **p<0.01, ***p<0.001.
(§7) Jurkat cells (2×10^6) were pretreated with PD98059 (50 μM), TFP (10 μM) or LY294002 (25 μM) for one hour, then incubated with medium containing 2.5 μM TRIP for 24 hours. (A) IFN-γ and (B) IL-2 mRNA expression levels were detected by qRT-PCR and normalized with expression of GAPDH. **p<0.01, ***p<0.001, ****p<0.0001.
The effects on T cell activation of different functional group substitutions on the TRIP chemical structure (Formula Ia) were examined by measuring the expression of IFN-γ and IL-2 RNA in human acute T cell leukemia Jurkat cells in vitro.
A strong increase is defined as a ≥50% increase compared to the control. A moderate increase is defined as a 25-49% increase compared to the control. A weak increase is defined as a 0-24% increase compared to the control. No effect is when there was no increase compared to the control.

[2] = tested on: IFN-γ; assay: IFN-γ mRNA expression in Jurkat cells by qRT-PCR, normalized with GAPDH; assay type: cell-based, human
Protocol: as §1
FIG. 2. Effect of tamoxifen on TRIP-induced expression of IFN-γ in vitro. Jurkat cells (2×10^6) were treated with TRIP (2.5 μM) and/or tamoxifen (2.5 μM) for 24 hours. The expression levels of IFN-γ were analyzed by qRT-PCR and normalized with GAPDH. **p<0.01, ***p<0.005.
as §2, §3, §4, §5
The expression levels of IFN-γ were analyzed by qRT-PCR and normalized with GAPDH. **p<0.01, ***p<0.001.
as §6, §7
The effects on T cell activation of different functional group substitutions on the TRIP chemical structure (Formula Ia) were examined by measuring the expression of IFN-γ and IL-2 RNA in human acute T cell leukemia Jurkat cells in vitro. […]

[3] = tested on: IFN-γ; assay: Experiment 5: serum IFN-γ cytokine analysis; assay type: in vivo, human MUC1.Tg C57BL/6 mice; settings: TRIP 100 mg/kg or letrozole 0.8 mg/kg daily oral 14 days
Protocol: FIG. 13. Effects of TRIP on serum IFN-γ compared to estradiol and letrozole. Serum IFN-γ from untreated control, TRIP (100 mg/kg), estradiol (E2; 25 μg/kg), and letrozole (0.8 mg/kg) groups were analyzed following daily treatment for 14 days (n=8 all groups). **p<0.01, ***p<0.001.
TRIP and letrozole were prepared in DMSO and peanut oil as described above in Experiment 2 and administered daily for 14 days by oral gavage (100 μL). Estradiol was dissolved in 100% ethanol, diluted in PBS to achieve the desired concentration, and then administered daily for 14 days by s.c. injection at rotating sites using a 25-gauge needle. In Week 19, the study was terminated, 24 hours after the last treatments, and serum and spleens were collected for surface marker and Treg analyses.

[4] = tested on: T-cell surface markers (CD4, CD8, PD-1, CD28); assay: Experiment 5: T-cell surface markers of spleen lymphocytes by flow cytometry; assay type: in vivo, human MUC1.Tg C57BL/6 mice
Protocol: FIG. 11. Lymphocyte phenotypes following different hormonal treatments. (A) CD3+CD4+; (B) CD3+CD8+; (C) CD3+CD28+; (D) CD8+CD28+; (E) CD3+PD-1+; and (F) CD8+PD-1+; T cell surface markers were stained with indicated antibodies after […] of TRIP (100 mg/kg), estradiol (E2; 25 μg/kg), and letrozole (0.8 mg/kg) treatments (n=8 all groups).
(§8) A total of 32 female human MUC1.Tg C57BL/6 mice, starting at approximately six weeks of age, were treated with urethane as described (Wurz G T. et al., J. Transl. Med., 11:64 (2013)). Two weeks following the final dose of urethane (Week 17), the mice were randomized into four treatment groups of approximately equal average weight (n=8, all groups): Control (no treatment); TRIP (i.e., ospemifene) 100 mg/kg; estradiol 25 μg/kg; and letrozole 0.8 mg/kg. TRIP and letrozole were prepared in DMSO and peanut oil as described above in Experiment 2 and administered daily for 14 days by oral gavage (100 μL). Estradiol was dissolved in 100% ethanol, diluted in PBS to achieve the desired concentration, and then administered daily for 14 days by s.c. injection at rotating sites using a 25-gauge needle. In Week 19, the study was terminated, 24 hours after the last treatments, and serum and spleens were collected for surface marker and Treg analyses.
(§9) After two weeks of treatment, lymphocytes were isolated from spleen. T-cell surface markers (CD4, CD8, PD-1, CD28) and regulatory T cells (Tregs) were analyzed by flow cytometry.

[5] = tested on: regulatory T cells (Tregs); assay: Experiment 5: regulatory T cells (FoxP3+/CD4+) by flow cytometry; assay type: in vivo, human MUC1.Tg C57BL/6 mice; settings: TRIP 100 mg/kg or letrozole 0.8 mg/kg daily oral 14 days
Protocol: as §8, §9

[6] = Jurkat cells pretreated 1 hour with PD98059 50 μM, TFP 10 μM or LY294002 25 μM, then 2.5 μM TRIP 24 hours (FIG. 4)
[7] = Jurkat cells pretreated 1 hour with TFP 0.1-10.0 μM or LY294002 1-25 μM, then 2.5 μM TRIP 24 hours (FIG. 3)
[8] = mRNA in Jurkat cells in vitro, relative to control sample without TRIP compound

COc1cccc(-c2cc(=O)c3ccccc3o2)c1N [PD98059, reference compound]
TRIP-induced expression of IL-2 [1, 6]: did not appear to affect | TRIP-induced expression of IFN-γ [2, 6]: did not appear to affect

CN1CCN(CCCN2c3ccccc3Sc3ccc(C(F)(F)F)cc32)CC1 [TFP, trifluoperazine, reference compound]
TRIP-induced expression of IL-2 [1, 6]: significantly decreased | TRIP-induced expression of IL-2 [1, 7]: significantly decreased | TRIP-induced expression of IFN-γ [2, 6]: significantly decreased | TRIP-induced expression of IFN-γ [2, 7]: significantly decreased

OCCOCCOc1ccc(/C(=C(/CCCl)c2ccccc2)c2ccccc2)cc1 [Z-2-{2-[4-(4-chloro-1,2-diphenyl-but-1-enyl)-phenoxy]-ethoxy}-ethanol]
IL-2 Expression [1, 8]: +++ (strong increase) | IFN-γ Expression [2, 8]: +++ (strong increase)

N#Cc1ccc(C(c2ccc(C#N)cc2)n2cncn2)cc1 [letrozole, reference compound]
serum IFN-γ concentrations compared to estradiol [3]: significantly increased | expression of surface markers, including CD8 and CD28, vs control ([4]; TRIP 100 mg/kg or letrozole 0.8 mg/kg daily oral 14 days): no difference | CD4+ T cell population ([4]; letrozole 0.8 mg/kg daily oral 14 days): lower | Tregs (FoxP3+/CD4+) compared to estradiol treatment [5]: significantly inhibited

CC/C(=C(\c1ccccc1)c1ccc(OCCN(C)C)cc1)c1ccccc1 [tamoxifen, reference compound]
expression of IFN-γ compared to control ([2]; Jurkat cells, single agent 2.5 μM, 24 hours (FIG. 2)): no apparent effect | effect on the T cell activating ability of TRIP (IFN-γ expression) ([2]; Jurkat cells, tamoxifen 2.5 μM with TRIP 2.5 μM, 24 hours): does not affect
